Laboratory results published in US10213427B2 (Incyte Corporation, priority 2010, dated 2019).

Biological target: FGFR3 enzyme (Millipore) (Homo sapiens (Human), UniProt P22607)
Test: FGFR3 Enzymatic Assay
Format: biochemical
Settings: FRET peptide phosphorylation, 140 μM ATP
In short: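 FGFR3 preincubated 5-10 min with serially diluted inhibitor in 50 mM HEPES pH 7.5, 10 mM MgCl2, 1 mM EGTA, 5 mM DTT, then reacted 1 h at 25 °C. Peptide phosphorylation detected by FRET; IC50 from variable-slope sigmoidal fit.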

Chain of FGFR3 enzyme (Millipore) (P22607 23-806): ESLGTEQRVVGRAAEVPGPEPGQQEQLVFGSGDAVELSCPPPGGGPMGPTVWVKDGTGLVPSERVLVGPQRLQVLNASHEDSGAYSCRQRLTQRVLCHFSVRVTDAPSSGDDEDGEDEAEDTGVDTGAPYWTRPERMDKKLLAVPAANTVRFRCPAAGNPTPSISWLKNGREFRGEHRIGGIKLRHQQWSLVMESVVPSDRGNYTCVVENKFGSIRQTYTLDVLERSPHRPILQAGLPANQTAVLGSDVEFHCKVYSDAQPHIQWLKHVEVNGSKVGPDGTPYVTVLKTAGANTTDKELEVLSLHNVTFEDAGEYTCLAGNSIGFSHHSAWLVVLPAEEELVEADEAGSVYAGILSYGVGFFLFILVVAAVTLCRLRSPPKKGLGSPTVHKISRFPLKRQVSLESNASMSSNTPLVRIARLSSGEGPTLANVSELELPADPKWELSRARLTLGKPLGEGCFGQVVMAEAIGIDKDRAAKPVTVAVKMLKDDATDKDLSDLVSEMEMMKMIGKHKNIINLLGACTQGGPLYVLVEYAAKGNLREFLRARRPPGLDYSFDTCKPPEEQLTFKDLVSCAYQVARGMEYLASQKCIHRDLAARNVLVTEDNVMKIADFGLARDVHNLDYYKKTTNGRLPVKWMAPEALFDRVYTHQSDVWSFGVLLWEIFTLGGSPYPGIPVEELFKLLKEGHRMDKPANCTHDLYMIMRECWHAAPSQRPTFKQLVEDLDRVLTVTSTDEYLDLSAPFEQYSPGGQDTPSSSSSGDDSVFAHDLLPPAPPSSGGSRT

IC50	SMILES
< 10 nM	CC(C(=O)N(C)C)c1ccc(-c2cnn3c(-c4cccc(NC(=O)NCC(F)(F)F)c4)cnc3c2)cc1 (stereo not drawn) [Example 99, N,N-Dimethyl-2-(4-{3-[3-({[(2,2,2-trifluoroethyl)amino]carbonyl}amino)phenyl]imidazo[1,2-b]pyridazin-7-yl}phenyl)propanamide]
< 10 nM	CC(C(=O)NC[C@@H]1CCCO1)c1ccc(-c2cnn3c(-c4cccc(NC(=O)NCC(F)(F)F)c4)cnc3c2)cc1 (stereo partly drawn) [Example 100]
< 10 nM	CC(C(=O)N1CCC[C@H]1CO)c1ccc(-c2cnn3c(-c4cccc(NC(=O)NCC(F)(F)F)c4)cnc3c2)cc1 (stereo partly drawn) [Example 106, N-{3-[7-(4-{2-[(2S)-2-(Hydroxymethyl)pyrrolidin-1-yl]-1-methyl-2-oxoethyl}phenyl)imidazo[1,2-b]pyridazin-3-yl]phenyl}-N′-(2,2,2-trifluoroethyl)urea]

The next lines start with the compound.

SMILES	IC50
CC(C(=O)N1CC[C@H](O)C1)c1ccc(-c2cnn3c(-c4cccc(NC(=O)NCC(F)(F)F)c4)cnc3c2)cc1 (stereo partly drawn) [Example 101, N-{3-[7-(4-{2-[(3S)-3-Hydroxypyrrolidin-1-yl]-1-methyl-2-oxoethyl}phenyl)imidazo[1,2-b]pyridazin-3-yl]phenyl}-N′-(2,2,2-trifluoroethyl)urea]	< 10 nM
CC(C(=O)N1CCC(O)CC1)c1ccc(-c2cnn3c(-c4cccc(NC(=O)NCC(F)(F)F)c4)cnc3c2)cc1 (stereo not drawn) [Example 102, N-[3-(7-{4-[2-(4-Hydroxypiperidin-1-yl)-1-methyl-2-oxoethyl]phenyl}imidazo[1,2-b]pyridazin-3-yl)phenyl]-N′-(2,2,2-trifluoroethyl)urea]	< 10 nM
CC(C(=O)N[C@@H]1CCOC1)c1ccc(-c2cnn3c(-c4cccc(NC(=O)NCC(F)(F)F)c4)cnc3c2)cc1 (stereo partly drawn) [Example 103, N-[(3R)-Tetrahydrofuran-3-yl]-2-(4-{3-[3-({[(2,2,2-trifluoroethyl)amino]carbonyl}amino)phenyl]imidazo[1,2-b]pyridazin-7-yl}phenyl)propanamide]	< 10 nM
CC(C(=O)N1CC(O)C1)c1ccc(-c2cnn3c(-c4cccc(NC(=O)NCC(F)(F)F)c4)cnc3c2)cc1 (stereo not drawn) [Example 104, N-[3-(7-{4-[2-(3-Hydroxyazetidin-1-yl)-1-methyl-2-oxoethyl]phenyl}imidazo[1,2-b]pyridazin-3-yl)phenyl]-N′-(2,2,2-trifluoroethyl)urea]	< 10 nM
CC(C(=O)N1CCOCC1)c1ccc(-c2cnn3c(-c4cccc(NC(=O)NCC(F)(F)F)c4)cnc3c2)cc1 (stereo not drawn) [Example 105, N-(3-{7-[4-(1-Methyl-2-morpholin-4-yl-2-oxoethyl)phenyl]imidazo[1,2-b]pyridazin-3-yl}phenyl)-N′-(2,2,2-trifluoroethyl)urea]	< 10 nM
CC(C(=O)NCCN1CCOCC1)c1ccc(-c2cnn3c(-c4cccc(NC(=O)NCC(F)(F)F)c4)cnc3c2)cc1 (stereo not drawn) [Example 107, N-(2-Morpholin-4-ylethyl)-2-(4-{3-[3-({[(2,2,2-trifluoroethyl)amino]carbonyl}amino)phenyl]imidazo[1,2-b]pyridazin-7-yl}phenyl)propanamide]	< 10 nM
